{"source": "paper PMC11818416", "about": "“Discovery of TRPV4-Targeting Small Molecules with Anti-Influenza Effects Through Machine Learning and Experimental Validation” (International Journal of Molecular Sciences, 2025)", "key": {"[1]": {"assay": "CCK-8 cytotoxicity test on MDCK cells", "conditions": "dog", "description": "(§1) MDCK cells were inoculated in 96-well plates at 37 °C and 5% carbon dioxide for 12 h. The cell supernatant was discarded when the cell density reached 60–70%, and then different concentrations of drugs (0.1, 1, 10, 100 μM) were inoculated in the cell plates, moreover 3 repeat holes were set for each concentration gradient. After 48 h, cell viability was measured using cell counting kit-8 (Beyotime, C0039, CCK-8) depending on factory instructions. The absorbance at 450 nm for each pore was measured using an enzyme-linked immunosorbent plate reader, and half inhibitory concentration (CC50) value of cell viability were calculated by a nonlinear regression curve fitting analysis (Prism 8) of cell viability to the log10 conversion concentration value."}, "[2]": {"tested_on": "NF-κB signaling pathway and inflammatory cytokines", "assay": "Inflammatory cytokine expression after H1N1-UI182 infection by WB and RT-qPCR", "type": "in vivo, mouse", "conditions": "after H1N1-UI182 infection (Figure 6A-C)"}, "in vitro": {"assay": "in vitro", "conditions": "dog", "description": "as §1"}, "H1N1-UI182": {"tested_on": "H1N1-UI182", "assay": "Mice infected with lethal H1N1-UI182 virus: body weight, survival, lung index, lung viral titer, pathology, viral proteins", "type": "in vivo, BALB/c mice", "conditions": "for viral titers in the lung: Supplementary Figures S1C and S2C, comparable to the positive drugs; for survival rate of infected mice: 15-drug round (Figure 4C,D); for expression levels of viral proteins (NP, HA, M1) in lungs, WB: 15-drug round (Figure 4K,L); for rate of weight loss in virus-infected mice: 15-drug round, monitored 14 days (Figure 4A,B); for lung injury (pathology): compared to other treatment groups and virus group, glecaprevir 30 mg/kg, everolimus 5 mg/kg (Figures S1, S2); for protection rate (survival of influenza-infected mice): H1N1-UI182 5 × LD50, BALB/c mice; for rate of weight loss at different concentrations / survival at different concentrations / dose dependence of the inhibitory effect on the virus (lung index, pulmonary viral load, pathological injury): oral"}, "H1N1-UI182 in 293T cells": {"tested_on": "H1N1-UI182 in 293T cells", "type": "cell-based, human"}, "[3]": {"conditions": "glecaprevir 10, 20, 40 mg/kg/day, everolimus 1, 5, 25 mg/kg/day"}, "[4]": {"conditions": "glecaprevir 10, 20, 40 mg/kg/day, everolimus 1, 5, 25 mg/kg/day, 5 dpi"}}, "note": "Counter-ions that a name gives are not always drawn."}
{"smiles": "NC[C@H]1O[C@H](O[C@H]2[C@H](O)[C@@H](O[C@H]3O[C@H](CO)[C@@H](O)[C@H](N)[C@H]3O)[C@H](N)C[C@@H]2N)[C@H](N)C[C@@H]1O", "note": "[Tobramycin]", "values": [{"measurement": "CC50 at 48 h", "setting": "[1]; MDCK cells", "value": "> 100", "unit": "µM"}]}
{"smiles": "NC[C@@H]1O[C@H](O[C@H]2[C@@H](O)[C@H](O[C@@H]3[C@@H](O)[C@H](N)C[C@H](N)[C@H]3O[C@H]3O[C@H](CO)[C@@H](O)[C@H](O)[C@H]3N)O[C@@H]2CO)[C@H](N)[C@@H](O)[C@@H]1O", "note": "[Paromomycin, Paromomycin sulfate]", "values": [{"measurement": "CC50 at 48 h", "setting": "[1]; MDCK cells", "value": "> 100", "unit": "µM"}]}
{"smiles": "COC(=O)N[C@H](C(=O)N1CCC[C@H]1C(=O)Nc1ccc([C@@H]2CC[C@@H](c3ccc(NC(=O)[C@@H]4CCCN4C(=O)[C@@H](NC(=O)OC)C(C)C)cc3)N2c2ccc(C(C)(C)C)cc2)cc1)C(C)C", "note": "[Ombitasvir]", "values": [{"measurement": "CC50 at 48 h", "setting": "[1]", "value": "> 100", "unit": "µM"}]}
{"smiles": "CC(C)(C)[C@@H]1NC(=O)O[C@@H]2CCC[C@H]2OC/C=C/C(F)(F)c2nc3ccccc3nc2O[C@@H]2C[C@@H](C(=O)N[C@]3(C(=O)NS(=O)(=O)C4(C)CC4)C[C@H]3C(F)F)N(C2)C1=O", "note": "[Glecaprevir]", "values": [{"measurement": "expression levels of phosphorylated NF-κB, IL-6, IL-10, IFN-β, TNF-α (WB)", "setting": "[2]", "value": "decreased"}, {"measurement": "CC50 at 48 h", "setting": "in vitro", "value": 77.3, "unit": "µM"}, {"measurement": "viral titers in the lung", "setting": "H1N1-UI182; 5 dpi", "value": "significantly reduced viral titers"}, {"measurement": "survival rate of infected mice", "setting": "H1N1-UI182", "value": "significantly improved the survival rate"}, {"measurement": "expression levels of viral proteins (NP, HA, M1) in lungs, WB", "setting": "H1N1-UI182", "value": "attenuated obviously"}, {"measurement": "rate of weight loss in virus-infected mice", "setting": "H1N1-UI182", "value": "significantly slowed the rate of weight loss"}, {"measurement": "lung injury (pathology)", "setting": "H1N1-UI182; 5 days after infection", "value": "noticeable signs of lung improvement"}, {"measurement": "protection rate (survival of influenza-infected mice)", "setting": "H1N1-UI182", "value": 80, "unit": "%"}, {"measurement": "expression of viral protein in mouse lungs at higher doses, WB", "setting": "H1N1-UI182; glecaprevir 10, 20, 40 mg/kg/day (Figure 5K)", "value": "did not effectively inhibit the expression of viral protein at higher doses"}, {"measurement": "lung lesions at higher concentrations", "setting": "H1N1-UI182; glecaprevir 10, 20, 40 mg/kg/day, 5 dpi, H&E (Figure 5I)", "value": "higher concentrations did not alter the lung lesions"}, {"measurement": "rate of weight loss at different concentrations", "setting": "H1N1-UI182; [3]", "value": "observably retarded the rate of weight loss"}, {"measurement": "survival at different concentrations", "setting": "H1N1-UI182; [3]", "value": "improved survival in a concentration-dependent manner"}, {"measurement": "dose dependence of the inhibitory effect on the virus (lung index, pulmonary viral load, pathological injury)", "setting": "H1N1-UI182; [4]", "value": "did not display concentration-dependent characteristics"}]}
{"smiles": "CCC[C@H](NC(=O)[C@@H]1[C@H]2CCC[C@H]2CN1C(=O)[C@@H](NC(=O)[C@@H](NC(=O)c1cnccn1)C1CCCCC1)C(C)(C)C)C(=O)C(=O)NC1CC1", "note": "[Telaprevir]", "values": [{"measurement": "CC50 at 48 h", "setting": "in vitro", "value": "> 100", "unit": "µM"}]}
{"smiles": "CCCCC(=O)OCC(=O)[C@]1(O)Cc2c(O)c3c(c(O)c2[C@@H](O[C@H]2C[C@H](NC(=O)C(F)(F)F)[C@H](O)[C@H](C)O2)C1)C(=O)c1c(OC)cccc1C3=O", "note": "[Valrubicin]", "values": [{"measurement": "CC50 at 48 h", "setting": "[1]; MDCK cells", "value": "< 50", "unit": "µM"}]}
{"smiles": "CNCC(=O)OCc1cccnc1N(C)C(=O)OC(C)[n+]1cnn(C[C@](O)(c2cc(F)ccc2F)[C@@H](C)c2nc(-c3ccc(C#N)cc3)cs2)c1", "note": "(stereo partly drawn) [Isavuconazonium]", "values": [{"measurement": "CC50 at 48 h", "setting": "[1]; MDCK cells", "value": "> 100", "unit": "µM"}]}
{"smiles": "C[C@H]1O[C@H](O[C@H]2[C@H](O)[C@@H](O)[C@@H](O[C@H]3[C@H](O)[C@@H](O)C(O)O[C@@H]3CO)O[C@@H]2CO)[C@H](O)[C@@H](O)[C@@H]1N[C@H]1C=C(CO)[C@@H](O)[C@H](O)[C@H]1O", "note": "(stereo partly drawn) [Acarbose]", "values": [{"measurement": "CC50 at 48 h", "setting": "[1]; MDCK cells", "value": "> 100", "unit": "µM"}, {"measurement": "rate of weight loss in virus-infected mice", "setting": "H1N1-UI182", "value": "significantly slowed the rate of weight loss"}]}
{"smiles": "C[C@@H]1O[C@@H](OC[C@H]2O[C@@H](Oc3c(-c4ccc(OCCO)c(OCCO)c4)oc4cc(OCCO)cc(O)c4c3=O)[C@H](O)[C@@H](O)[C@@H]2O)[C@H](O)[C@H](O)[C@H]1O", "note": "[Troxerutin]", "values": [{"measurement": "CC50 at 48 h", "setting": "[1]; MDCK cells", "value": "< 50", "unit": "µM"}]}
{"smiles": "CC(/C=C/C=C(\\C)C(=O)O[C@@H]1O[C@H](CO[C@@H]2O[C@H](CO)[C@@H](O)[C@H](O)[C@H]2O)[C@@H](O)[C@H](O)[C@H]1O)=C\\C=C\\C=C(C)\\C=C\\C=C(/C)C(=O)O[C@@H]1O[C@H](CO[C@@H]2O[C@H](CO)[C@@H](O)[C@H](O)[C@H]2O)[C@@H](O)[C@H](O)[C@H]1O", "note": "[Crocin]", "values": [{"measurement": "CC50 at 48 h", "setting": "[1]; MDCK cells", "value": "> 100", "unit": "µM"}]}
{"smiles": "CN[C@@H]1[C@@H](O)[C@@H](O[C@@H]2[C@@H](O)[C@H](O[C@H]3O[C@H](CN)[C@@H](O)[C@H](O)[C@H]3O)[C@@H](N)C[C@H]2NC(=O)[C@@H](O)CN)OC[C@]1(C)O", "note": "[Isepamicin]", "values": [{"measurement": "CC50 at 48 h", "setting": "[1]; MDCK cells", "value": "> 100", "unit": "µM"}]}
{"smiles": "Cc1cc2nc3c(=O)[nH]c(=O)nc-3n(C[C@H](O)[C@H](O)[C@H](O)COP(=O)(O)OP(=O)(O)OC[C@H]3O[C@@H](n4cnc5c(N)ncnc54)[C@H](O)[C@@H]3O)c2cc1C", "note": "[FAD]", "values": [{"measurement": "CC50", "setting": "MDCK cells", "value": "< 50", "unit": "µM"}]}
{"smiles": "CO[C@H]1C[C@@H]2CC[C@@H](C)[C@@](O)(O2)C(=O)C(=O)N2CCCC[C@H]2C(=O)O[C@H]([C@H](C)C[C@@H]2CC[C@@H](OCCO)[C@H](OC)C2)CC(=O)[C@H](C)/C=C(\\C)[C@@H](O)[C@@H](OC)C(=O)[C@H](C)C[C@H](C)/C=C/C=C/C=C/1C", "note": "[Everolimus]", "values": [{"measurement": "expression levels of phosphorylated NF-κB, IL-6, IL-10, IFN-β, TNF-α (WB)", "setting": "[2]", "value": "decreased"}, {"measurement": "expression level of NP protein in normal 293T cells (WB)", "setting": "H1N1-UI182 in 293T cells", "value": "higher in normal cells"}, {"measurement": "expression of NP protein in TRPV4−/− 293T cells (WB)", "setting": "H1N1-UI182 in 293T cells", "value": "significantly decreased"}, {"measurement": "CC50 at 48 h", "setting": "in vitro", "value": 78.2, "unit": "µM"}, {"measurement": "viral titers in the lung", "setting": "H1N1-UI182; 5 dpi", "value": "significantly reduced viral titers"}, {"measurement": "survival rate of infected mice", "setting": "H1N1-UI182", "value": "significantly improved the survival rate"}, {"measurement": "expression levels of viral proteins (NP, HA, M1) in lungs, WB", "setting": "H1N1-UI182", "value": "attenuated obviously"}, {"measurement": "rate of weight loss in virus-infected mice", "setting": "H1N1-UI182", "value": "significantly slowed the rate of weight loss"}, {"measurement": "viral load in the lungs", "setting": "H1N1-UI182; 5 days after infection, compared to the viral group (Figure 4G-J)", "value": "evidently lower"}, {"measurement": "lung injury (pathology)", "setting": "H1N1-UI182; 5 days after infection", "value": "noticeable signs of lung improvement"}, {"measurement": "protection rate (survival of influenza-infected mice)", "setting": "H1N1-UI182", "value": 100, "unit": "%"}, {"measurement": "pulmonary viral load at different concentrations", "setting": "H1N1-UI182; everolimus 1, 5, 25 mg/kg/day, 5 dpi (Figure 5H)", "value": "decreased notably with the increase of drug concentration"}, {"measurement": "rate of weight loss at different concentrations", "setting": "H1N1-UI182; [3]", "value": "observably retarded the rate of weight loss"}, {"measurement": "survival at different concentrations", "setting": "H1N1-UI182; [3]", "value": "improved survival in a concentration-dependent manner"}, {"measurement": "dose dependence of the inhibitory effect on the virus (lung index, pulmonary viral load, pathological injury)", "setting": "H1N1-UI182; [4]", "value": "meaningfully dose-dependent"}]}
{"smiles": "CSCCNc1nc(SCCC(F)(F)F)nc2c1ncn2[C@@H]1O[C@H](COP(=O)(O)OP(=O)(O)C(Cl)(Cl)P(=O)(O)O)[C@@H](O)[C@H]1O", "note": "[Cangrelor]", "values": [{"measurement": "CC50 at 48 h", "setting": "in vitro", "value": "> 100", "unit": "µM"}, {"measurement": "rate of weight loss in virus-infected mice", "setting": "H1N1-UI182", "value": "significantly slowed the rate of weight loss"}]}
